Assay results: patent EP4417602A1, “SUBSTITUTED PYRAZOLE CARBOXAMIDES, SALTS THEREOF AND THEIR USE AS HERBICIDALLY ACTIVE SUBSTANCES” (Bayer AG, priority 2023, dated 2024)

Experiments:
ECHCG [1] = assay: A. Herbicidal pre-emergence action on harmful plants (Tables A); assay type: in vivo, Echinochloa crus-galli; conditions: visual grading after ca. 3 weeks vs untreated controls, 100% = plants have died off, 0% = as control plants
Procedure, shortened: (§1)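 Greenhouse pre-emergence test: compound applied to the soil surface at 1280 g/ha or below, and herbicidal effect rated visually at ca. 3 weeks on a 0–100% scale against untreated plants.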

LOLRI [2] = assay: as above; assay type: in vivo, Lolium rigidum; conditions: visual grading after ca. 3 weeks vs untreated controls, 100% = plants have died off, 0% = as control plants
Procedure, shortened: as §1

MATIN [3] = assay: as above; assay type: in vivo, Matricaria inodora; conditions: visual grading after ca. 3 weeks vs untreated controls, 100% = plants have died off, 0% = as control plants
Procedure, shortened: as §1

SETVI = assay: as above; assay type: in vivo, Setaria viridis; conditions: visual grading after ca. 3 weeks vs untreated controls, 100% = plants have died off, 0% = as control plants
Procedure, shortened: as §1

STEME [4] = assay: as above; assay type: in vivo, Stellaria media; conditions: visual grading after ca. 3 weeks vs untreated controls, 100% = plants have died off, 0% = as control plants
Procedure, shortened: as §1

POAAN [5] = assay: as above; assay type: in vivo, Poa annua
Procedure, shortened: as §1

ALOMY = assay: as above; assay type: in vivo, Alopecurus myosuroides
Procedure, shortened: as §1

DIGSA = assay: as above; assay type: in vivo, Digitaria sanguinalis; conditions: application rate 1280 g/ha; Table A12a
Procedure, shortened: as §1

ECHCG [6] = assay: B. Herbicidal post-emergence action on harmful plants (Tables B); assay type: in vivo, Echinochloa crus-galli; conditions: application rate 1280 g/ha; Table B2a
Procedure, shortened: (§2)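 Activity was scored visually as % damage (100% = dead, 0% = like untreated) about 3 weeks after treatment. Plants at the one-leaf stage, 2-3 weeks old, were sprayed with WP/EC formulations plus 0.5% additive (600 L/ha water, up to 1280 g/ha). Plants were grown in sandy loam in a greenhouse.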

LOLRI [7] = assay: as above; assay type: in vivo, Lolium rigidum; conditions: application rate 1280 g/ha; Table B3
Procedure: Seeds of mono- and dicotyledonous weed plants were placed in plastic pots in sandy loam soil (doubly sown with in each case one species of mono- or dicotyledonous weed plants per pot), covered with soil and cultivated in a greenhouse under controlled growth conditions. 2 to 3 weeks after sowing, the test plants were treated at the one-leaf stage. The compounds of the invention, formulated in the form of wettable powders (WP) or as emulsion concentrates (EC), were applied onto the green parts of the plants as aqueous suspension or emulsion with addition of 0.5% additive at a water application rate of 600 liters per hectare (converted). After the test plants had been kept in the greenhouse under optimum growth conditions for about 3 weeks, the activity of the preparations was rated visually in comparison to untreated controls. For example, 100% activity = the plants have died, 0% activity = like control plants. Tables B1 to B12, below, show the effects of selected compounds of the general formula (I) according to table 1 on various harmful plants and an application rate corresponding to 1280 g/ha or below obtained by the experimental procedure mentioned above. Table B1a: post-emergence activity at 1280g/ha against ABUTH in %

MATIN [8] = assay: as above; assay type: in vivo, Matricaria inodora
Procedure, shortened: as §2

STEME [9] = assay: as above; assay type: in vivo, Stellaria media; conditions: application rate 1280 g/ha; Table B6
Procedure, shortened: as §2

POAAN [10] = assay: as above; assay type: in vivo, Poa annua
Procedure, shortened: as §2

VERPE = assay: as above; assay type: in vivo, Veronica persica; conditions: application rate 1280 g/ha; Table B11a
Procedure, shortened: as §2

COCc1nn(C)cc1C(=O)N1CCCC1Cc1ccccc1Br (racemic) [Example I-018] was tested, and the “pre-emergence activity against ECHCG” value (ECHCG [1]; application rate 80 g/ha) was 90%, the “pre-emergence activity against ECHCG” value (ECHCG [1]; application rate 320 g/ha) was 90% and the “pre-emergence activity against ECHCG” value (ECHCG [1]; application rate 1280 g/ha) was 100%. For the same compound, the “pre-emergence activity against LOLRI” value (LOLRI [2]; application rate 80 g/ha) was 90%, the “pre-emergence activity against LOLRI” value (LOLRI [2]; application rate 320 g/ha) was 100% and the “pre-emergence activity against LOLRI” value (LOLRI [2]; application rate 1280 g/ha) was 100%. The “pre-emergence activity against MATIN” value (MATIN [3]; application rate 80 g/ha) was 90%, the “pre-emergence activity against MATIN” value (MATIN [3]; application rate 320 g/ha) was 90% and the “pre-emergence activity against MATIN” value (MATIN [3]; application rate 1280 g/ha) was 90%. For the same compound, the “pre-emergence activity against SETVI” value (SETVI; application rate 320 g/ha) was 100%, the “pre-emergence activity against SETVI” value (SETVI; application rate 1280 g/ha) was 100% and the “pre-emergence activity against STEME” value (STEME [4]; application rate 320 g/ha) was 90%. The “pre-emergence activity against STEME” value (STEME [4]; application rate 1280 g/ha) was 90%, the “pre-emergence activity against POAAN” value (POAAN [5]; application rate 80 g/ha, Table A7c) was 100% and the “pre-emergence activity against POAAN” value (POAAN [5]; application rate 320 g/ha, Table A7b) was 100%. The “pre-emergence activity against POAAN” value (POAAN [5]; application rate 1280 g/ha, visual grading after ca. 3 weeks vs untreated controls, 100% = plants have died off, 0% = as control plants) was 100%, the “pre-emergence activity against ALOMY” value (ALOMY; application rate 320 g/ha, Table A9b) was 90% and the “pre-emergence activity against ALOMY” value (ALOMY; application rate 1280 g/ha, Table A9a) was 100%. For the same compound, the “pre-emergence activity against DIGSA” value (DIGSA) was 100%, the “post-emergence activity against ECHCG” value (ECHCG [6]) was 90% and the “post-emergence activity against LOLRI” value (LOLRI [7]) was 90%. For the same compound, the “post-emergence activity against MATIN” value (MATIN [8]; application rate 320 g/ha, Table B4b) was 90%, the “post-emergence activity against MATIN” value (MATIN [8]; application rate 1280 g/ha, Table B4a) was 90% and the “post-emergence activity against STEME” value (STEME [9]) was 90%. For the same compound, the “post-emergence activity against POAAN” value (POAAN [10]; application rate 320 g/ha, Table B7b) was 90%, the “post-emergence activity against POAAN” value (POAAN [10]; application rate 1280 g/ha, Table B7a) was 90% and the “post-emergence activity against VERPE” value (VERPE) was 90%.
